The record followed here is PMC5253734, “A chemical genetic screen uncovers a small molecule enhancer of the N-acylethanolamine degrading enzyme, fatty acid amide hydrolase, in Arabidopsis” (Scientific Reports, 2017).

Experiment [1] has as its target T1, AtFAAH (Arabidopsis fatty acid amide hydrolase) (Arabidopsis thaliana, UniProt Q7XJJ7).
T1 construct: gene FAAH
T1 sequence (Q7XJJ7 1-607): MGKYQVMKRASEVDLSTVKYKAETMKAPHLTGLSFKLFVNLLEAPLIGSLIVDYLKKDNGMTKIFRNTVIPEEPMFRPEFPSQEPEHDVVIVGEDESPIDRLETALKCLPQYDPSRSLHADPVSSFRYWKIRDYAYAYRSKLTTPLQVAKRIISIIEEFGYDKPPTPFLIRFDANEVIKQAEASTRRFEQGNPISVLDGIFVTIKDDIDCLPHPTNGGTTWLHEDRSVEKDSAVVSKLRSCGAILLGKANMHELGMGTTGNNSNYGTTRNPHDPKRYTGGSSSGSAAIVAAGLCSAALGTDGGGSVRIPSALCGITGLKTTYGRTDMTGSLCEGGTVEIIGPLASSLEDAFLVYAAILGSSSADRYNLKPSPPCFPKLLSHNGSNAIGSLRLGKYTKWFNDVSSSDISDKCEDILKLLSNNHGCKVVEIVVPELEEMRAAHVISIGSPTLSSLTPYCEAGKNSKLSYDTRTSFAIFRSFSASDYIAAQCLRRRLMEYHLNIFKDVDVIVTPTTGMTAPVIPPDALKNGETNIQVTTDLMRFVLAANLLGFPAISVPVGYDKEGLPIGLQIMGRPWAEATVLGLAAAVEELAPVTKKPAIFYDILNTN
The experiment is described as follows: radiometric TLC amidohydrolase assay, initial velocities, Michaelis-Menten. Format: biochemical. As to conditions: labelled compound ([1-14C]); pH 9 Bis-Tris propane, 0.2 mM DDM, 30 °C; range covers without and with 100 μM MDPD; read-out: apparent Km.

For experiment [2], the target named is T1, AtFAAH (Arabidopsis fatty acid amide hydrolase). Put plainly: radiometric TLC amidohydrolase assay. The settings on record: activator (raises apparent Vmax, not Km); 100 μM [14C]-NAE 12:0; pH 9, 0.2 mM DDM, 30 °C. Format: biochemical.

The structures appear in SMILES notation.

Turning to `CCCCCCCCCCCC(=O)NCCO` [NAE 12:0, N-lauroylethanolamine], the Michaelis-Menten constant (Km) in experiment [1] was in the range of 27 to 28 µM.
As for `COc1ccccc1-n1cc2c(c1-c1ccccc1)c(=O)n(C)c(=O)n2C` [MDPD, 6-(2-methoxyphenyl)-1,3-dimethyl-5-phenyl-1H-pyrrolo[3,4-d]pyrimidine-2,4(3 H,6 H)-dione], the “fold increase in activity at 100 μM” value in experiment [2] is on record as ~ 4 fold.

By Km is commonly meant the substrate concentration at which the rate is half of its maximum.
